In patent US20210267996A1, “Compounds for inhibition of inflammation” (Children`s Medical Center Corporation, priority 2018, published 2021):
“Also recorded” adds a separate entry of the source.

Key:
[1] = test system: caspase-1, GSDMD, and pro-IL-1β; experiment: Caspase-1, GSDMD, pro-IL-1β cleavage and IL-1β secretion by immunoblot, THP-1; format: cell-based, human; conditions: 30 μM; for caspase-1, GSDMD and pro-IL-1β cleavage: 30 min after nigericin
Method: Immunoblot analysis: cell extracts were prepared using RIPA buffer (50 mM Tris-HCl pH 7.4, 150 mM NaCl, 1 mM EDTA, 1% Triton X-100, 0.1% SDS, 0.5% deoxycholate) supplemented with a complete protease inhibitor cocktail (Roche) and a PhosSTOP phosphatase inhibitor cocktail (Roche). Samples were subjected to SDS-PAGE and the resolved proteins were then transferred to a PVDF membrane (Millipore). Immunoblots were probed with indicated antibodies and visualized using a SuperSignal West Pico chemiluminescence ECL kit (Pierce).
To assess which steps in NLRP3-mediated inflammation were inhibited post ASC speck formation, LPS-primed THP-1 cells were treated with vehicle or 30 μM z-VAD-fmk, disulfiram or Bay 11-7082 1 hr before adding nigericin, and cleavage and activation of caspase-1, GSDMD, and pro-IL-1β were analysed by immunoblot of whole cell lysates 30 min later (FIG. 50). Secretion of processed IL-1β was also assessed by immunoblot of culture supernatants. […] Because immunoblots are not quantitative, caspase-1 activity 30 min after adding nigericin was also assessed using a fluorescent substrate in intact cells. […] Next, the effect of z-VAD-fmk, disulfiram and Bay 11-7082 on LPS+nigericin-induced GSDMD pore formation was assessed by immunofluorescence microscopy using a monoclonal antibody that was generated that recognizes both uncleaved GSDMD and its pore form (FIGS. 53, 54, and 64-66). In the absence of any inhibitor, the GSDMD antibody stained both the cytosol and the plasma membrane of LPS plus nigericin treated cells, which formed characteristic pyroptotic bubbles (See Reference 10). […] Thus, disulfiram and Bay 11-7082 inhibit multiple steps leading to canonical inflammasome-induced pyroptosis and inflammatory cytokine release, including priming, inflammasome assembly, inflammatory caspase activation, pro-inflammatory cytokine processing and GSDMD pore formation.
Cell death was determined by CytoTox96 assay. […] Cell death was determined by CytoTox96 assay. […] Shown are immunoblots of whole cell lysates harvested 0.5 hr later. […] Representative images of ASC specks (arrowheads) and mean±s.d. percent of cells with ASC specks analyzed 20 min later (FIG. 47). Whole cell lysates (WCL) and culture supernatants (Sup) were harvested 30 min after adding nigericin and immunoblotted with the indicated antibodies (FIG. 50). Caspase-1 activity was assayed 30 min after adding nigericin using a cell-permeable fluorescence dye FAM-YVAD-FMK (FIG. 52). […] Representative images of ASC specks (arrowheads) and mean±s.d. percent of cells with ASC specks analyzed 20 min later (FIGS. 48 and 49). Whole cell lysates (WCL) and culture supernatants (Sup), harvested 30 min after adding nigericin, were analyzed by immunoblot (FIG. 51). […] The Figures show representative confocal microscopy images and quantification of proportion of cells with GSDMD membrane staining and pyroptotic bubbles. Arrows indicate GSDMD staining of pyroptotic bubbles. […] FIGS. 57 and 58, dose response curve of the effect of Bay 11-7082 on caspase-1 (FIG. 57) and caspase-11 (FIG. 58) activity against a fluorescent peptide substrate. […] (FIG. 60). FIGS. 61 and 62 show dose response curve of the effect of Bay 11-7082 on liposome leakage induced by 0.3 μM human GSDMD-3C (FIG. 61) or mouse GSDMA3-3C (FIG. 62) plus 0.15 μM 3C protease. […] 2-fold dilutions of Bay 11-7082 from 5-40 μM were used. Graphs show the mean±s.d; data are representative of three independent experiments. *P<0.05, **P<0.01.
Canonical inflammasome assembly activates caspase-1, which cleaves pro-IL-1β and GSDMD, and the latter is needed to release processed IL-1β and to induce pyroptosis. […]

caspase-11 = target: T1, caspase-11 (Mus musculus, UniProt P70343); experiment: Caspase-11 inhibition assay (Ac-YVAD-AMC); format: biochemical
T1 construct: made in house; host or cells: Sf9 (baculovirus)
T1 sequence (P70343 81-373): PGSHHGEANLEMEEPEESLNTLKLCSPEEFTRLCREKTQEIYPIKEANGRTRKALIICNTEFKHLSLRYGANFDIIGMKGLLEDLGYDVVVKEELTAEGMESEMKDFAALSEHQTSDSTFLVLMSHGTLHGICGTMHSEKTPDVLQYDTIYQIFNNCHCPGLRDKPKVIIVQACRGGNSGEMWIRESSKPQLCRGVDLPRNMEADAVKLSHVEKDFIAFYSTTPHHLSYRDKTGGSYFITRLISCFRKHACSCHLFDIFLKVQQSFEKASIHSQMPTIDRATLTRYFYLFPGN
Method: Caspase-1 and caspase-11 inhibition assays: the fluorogenic assay for caspase-1 and caspase-11 activity is based on release of 7-amino-4-methylcoumarin (AMC) from the caspase substrate Ac-YVAD-AMC. Compounds (8 nM-50 μM) were incubated with 0.5 U of caspase-1 or caspase-11 for 30 min in assay buffer (20 mM HEPES, 150 mM NaCl) in 384-well plates (Corning 3820) before addition of Ac-YVAD-AMC (40 μM) to initiate the reactions. Reactions were monitored in a SpectraMax M5 plate reader (Molecular Devices, Sunnyvale, Calif. USA) with excitation/emission wavelengths at 350/460 nm. The fluorescence intensity of each reaction was recorded every 2 min for 2 hrs.
Fluorescence intensity at 460 nm was measured after excitation at 350 nm.

| Structure (SMILES) | caspase-1, GSDMD and pro-IL-1β cleavage ([1]; listed as disulfiram) | processing of caspase-1, GSDMD and pro-IL-1β ([1]; 60 min after nigericin) | processed IL-1β in culture supernatants ([1]; listed as disulfiram) | IC50 (caspase-11) [nM] | effect of Cu(II) on caspase-11 inhibition (caspase-11; with Cu(II)) | processed IL-1β in culture supernatants [1] | caspase-1, GSDMD and pro-IL-1β cleavage [1] | times less active against caspase-11 than disulfiram (caspase-11) |
| --- | --- | --- | --- | --- | --- | --- | --- | --- |
| CCN(CC)C(=S)SSC(=S)N(CC)CC [C-23, Tetraethylthiuram disulfide] | dramatically reduced; also recorded: processing was reduced | caught up with what was detected in the absence of inhibitors | only detected in the culture supernatants in the absence of any inhibitor; also recorded: completely inhibited cytokine release | 730 ± 70 | did not strongly change | – | – | – |
| Cc1ccc(S(=O)(=O)/C=C/C#N)cc1 [Bay 11-7082] | – | – | – | – | – | only detected in the culture supernatants in the absence of any inhibitor | dramatically reduced | about 3 fold |
